Source: patent publication US20130142815A1, “ALPHA-METHYL-TRYPTOPHAN AS AN INHIBITOR OF INDOLEAMINE DIOXYGENASE” (Georiga Health Sciences Univ. Research Inst., Inc., priority 2010, published 2013)
One block for each molecule: values may come before it.

Key:
[1] = target: T1, indoleamine dioxygenase (IDO) (Mus musculus, UniProt P28776); experiment: Cell-free IDO inhibition assay with mouse intestinal mucosal lysates as the source of IDO; type: biochemical
T1 construct: mouse intestinal mucosal lysates were used as the source of IDO in a cell-free assay system; from tissue; host or cells: mouse intestinal mucosa (lysate)
Excerpt: FIG. 1 presents the comparative potencies of D-, L-, and DL-isomers of 1-methyltryptophan (1-MT) and alpha-methyltryptophan (alpha-MT) for inhibition of indoleamine dioxygenase (IDO). […] In these studies, mouse intestinal mucosal lysates were used as the source of IDO in a cell-free assay system. Thus, α-MLT will produce anti-cancer effects in vivo by two different, but synergistic, mechanisms. It will block the transport function of ATB^0,+ in tumor cells, thus preventing entry of essential amino acids and glutamine, and consequently causing growth arrest and apoptosis.

ATB0,+ [2] = target: T2, ATB0,+ (Homo sapiens, UniProt Q9UN76); experiment: Inward currents in ATB0,+-expressing Xenopus oocytes; type: cell-based; design: expressed in transfected cells; host or cells: Xenopus oocytes
T2 sequence (Q9UN76 1-642): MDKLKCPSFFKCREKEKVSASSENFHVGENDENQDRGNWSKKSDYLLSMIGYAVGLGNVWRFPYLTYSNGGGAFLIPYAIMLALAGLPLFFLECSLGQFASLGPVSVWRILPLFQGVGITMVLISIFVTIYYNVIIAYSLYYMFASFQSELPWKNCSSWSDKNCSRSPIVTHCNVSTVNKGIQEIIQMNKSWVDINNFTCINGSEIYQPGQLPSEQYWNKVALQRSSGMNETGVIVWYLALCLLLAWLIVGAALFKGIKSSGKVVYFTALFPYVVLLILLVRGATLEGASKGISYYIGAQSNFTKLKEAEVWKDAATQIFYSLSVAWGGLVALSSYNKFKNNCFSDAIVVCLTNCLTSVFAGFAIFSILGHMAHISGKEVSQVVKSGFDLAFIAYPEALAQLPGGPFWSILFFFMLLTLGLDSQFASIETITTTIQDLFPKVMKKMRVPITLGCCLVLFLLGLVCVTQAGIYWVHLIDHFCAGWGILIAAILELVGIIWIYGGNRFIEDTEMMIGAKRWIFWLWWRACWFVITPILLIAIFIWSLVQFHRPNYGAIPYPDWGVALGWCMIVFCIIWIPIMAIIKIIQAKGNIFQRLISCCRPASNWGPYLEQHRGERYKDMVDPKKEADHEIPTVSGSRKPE
Excerpt: Tryptophan is a substrate for ATB^0,+. […] Inhibition of glycine uptake could occur because α-MT is a transportable substrate for ATB^0,+ thus competing with glycine for the uptake process, or because it blocks the transporter without itself being transported. The Xenopus oocyte expression system can differentiate between these two modes of inhibition because transportable substrates would induce inward currents whereas blockers would not.
Next, the potency of α-MT to block the transporter under conditions that simulate those in vivo was determined (with all naturally occurring amino acids present at physiologic concentrations). ATB^0,+ accepts all proteinogenic amino acids except glutamate and aspartate. Therefore, using the Xenopus oocyte expression system, the transport activity of human ATB^0,+ was monitored in the presence of an amino acid mixture consisting of all proteinogenic amino acids, each at its respective physiologic concentration found in plasma. Inward currents were detected under these conditions in oocytes expressing human ATB^0,+. α-MT blocked the ATB^0,+-mediated inward currents in the presence of these amino acids. The inhibition was dose-dependent; the concentration of the blocker necessary to elicit 50% maximal inhibition was 255±24 μM (Karunakaran et al., 2008, Biochem J; 414: 343-355).
Although α-methyl-DL-tryptophan is a blocker of ATB^0,+, its potency is weak. […] The only commercially available α-methyltryptophan is the DL-form. Thus, an optical resolution method was developed to separate the L-isomer from the DL-form (FIG. 2). With this method, the L- and D-isomers of this compound were purified. The potencies of the two isomers as a blocker of ATB^0,+ was examined in Xenopus oocytes using the amino acid mixture simulating the plasma. The concentration of the L-isomer to elicit 50% maximal inhibition was 18±5 μM. This value is 14 times less than the corresponding value for the DL-form. With the D-isomer, the inhibition never increased beyond 40% even at 1 mM.

MCF7 cells = experiment: Mouse xenograft, MCF7 ER-positive breast cancer cell line; type: in vivo; conditions: in drinking water (2 mg/ml); in the presence of estrogen administration
Protocol: (§1) Mouse xenograft studies were performed with two ER-positive breast cancer cell lines (ZR75.1 and MCF7) and one ER-negative breast cancer cell line (MB231). […] Plasma concentration of alpha-methyltryptophan in mice after two weeks of administration in drinking water was […] was not detectable in control mice.

ATB0,+ [3] = target: T2, ATB0,+; conditions: cited from earlier work
mouse colon cancer cells = experiment: Mouse model of colon cancer, subcutaneous injection of mouse colon cancer cells; type: in vivo
Protocol: Further, alpha-methyltryptophan was administered in a mouse model of colon cancer. Following subcutaneous injection of mouse colon cancer cells into mice, mice were treated with alpha-methyltryptophan, either in drinking water or by intraperintoneal injection.

MB231 cells = experiment: Mouse xenograft, MB231 ER-negative breast cancer cell line; type: in vivo; conditions: in drinking water (2 mg/ml)
Protocol: as §1

ATB0,+ [4] = target: T2, ATB0,+; design: expressed in transfected cells; host or cells: Xenopus oocytes; conditions: tells transportable substrate from blocker; cited from earlier work
ZR75.1 cells = experiment: Mouse xenograft, ZR75.1 ER-positive breast cancer cell line; type: in vivo; conditions: in drinking water (2 mg/ml)
Protocol: as §1

IDO in DCs = target: T3, IDO in DCs (Mus musculus, UniProt P28776); experiment: Mixed lymphocyte reaction: suppression of CD8+ T cell proliferation by IDO-positive DCs, [3H]thymidine incorporation; type: cell-based
T3 construct: endogenous in cells; host or cells: CD11c+ dendritic cells from a CpG 1826-treated C57Bl6 mouse
Protocol: This example complements the cell-free in vitro measurements of IDO activity shown in Example 1 with a functional assay involving T cell proliferation. In this assay, CD8^+ T cells from a transgenic mouse (01.1) which carries the T-cell receptor specific for the ovalbumin peptide antigen Ser-Ile-Ile-Asn-Phe-Glu-Lys-Leu (SIINFEKL) were used. CD11c^+ dendritic cells (DCs) were also prepared from a C57B16 mouse that has been given CpG 1826 intravenously to induce IDO in DCs. A mixed lymphocyte reaction was then performed in which the ability of IDO-positive DCs to suppress the proliferation of CD8^+ T cells was monitored using [^3H]thymidine incorporation as the read-out. Thymidine incorporation in these T cells in the absence of DCs was taken as the control. When the T cells were cultured in the presence of IDO-positive DCs (10^5 cells), thymidine incorporation in T cells was suppressed by 63±3%. […] It is important to note that the concentration of α-MLT needed to inhibit IDO in DCs in this cell-based ex-vivo assay system (0.2 μM) is almost two orders of magnitude less than the IC50 observed for the inhibition of IDO in the cell-free assay system (˜20 μM). Based on these findings, it is expected that α-MLT will function as an anti-cancer agent in vivo by acting through two different mechanisms. […]

T1 sequence (P28776 whole entry): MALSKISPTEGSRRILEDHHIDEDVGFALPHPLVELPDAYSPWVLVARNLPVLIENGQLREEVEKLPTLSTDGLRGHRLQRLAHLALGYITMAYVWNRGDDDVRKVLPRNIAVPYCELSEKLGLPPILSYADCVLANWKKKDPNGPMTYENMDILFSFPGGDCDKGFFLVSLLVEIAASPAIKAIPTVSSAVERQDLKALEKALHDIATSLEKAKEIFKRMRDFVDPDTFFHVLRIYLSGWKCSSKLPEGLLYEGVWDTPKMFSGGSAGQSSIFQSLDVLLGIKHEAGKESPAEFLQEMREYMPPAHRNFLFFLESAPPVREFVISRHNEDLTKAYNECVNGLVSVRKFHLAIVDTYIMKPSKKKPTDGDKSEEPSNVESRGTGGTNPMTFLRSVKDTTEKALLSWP
T3 sequence (P28776 whole entry): as above

- potency as a blocker of ATB0,+ (in words) (ATB0,+ [2]): more potent than α-methyl-D-tryptophan
- times less than the corresponding value for the DL-form (ATB0,+ [2]; 50% maximal inhibition concentration, L-isomer vs DL-form): 14 times
Molecule: C[C@](N)(Cc1c[nH]c2ccccc12)C(=O)O [α-MLT, α-methyl-L-tryptophan]
- potency as an IDO inhibitor (comparison, FIG. 1) [1]: significantly more potent than the D-isomer

- potency as a blocker of ATB0,+ (in words) (ATB0,+ [2]): weak
Molecule: CC(N)(Cc1c[nH]c2ccccc12)C(=O)O (racemic) [α-methyl-DL-tryptophan]
- growth of MCF7 cells in xenograft (MCF7 cells): did not effect the growth
- effect on ATB0,+-mediated glycine uptake (ATB0,+ [3]): inhibited
- reduction of tumor growth (mouse colon cancer cells; in drinking water): approximately 50%
- reduction of tumor growth (mouse colon cancer cells; intraperitoneal injection): approximately 50%
- growth of MB231 cells in xenograft (MB231 cells): did not effect the growth
- potency as an IDO inhibitor (comparison, FIG. 1) [1]: significantly greater than that of 1-methyltryptophan
- induction of inward currents in ATB0,+-expressing Xenopus oocytes (ATB0,+ [4]): did not induce inward currents
- growth of ZR75.1 cells in xenograft (ZR75.1 cells): reduced growth

- reversal of suppression of thymidine incorporation in T cells by IDO-positive DCs (IDO in DCs; 0.2 μM, IDO-positive DCs (10^5 cells)): completely reversed
- concentration needed to inhibit IDO in DCs in cell-based ex-vivo assay system (IDO in DCs; cell-based ex-vivo assay): 0.2 µM
- IC50 ([1]; read-out: IC50 observed for the inhibition of IDO in the cell-free assay system): ~20 µM
Molecule: α-methyl-L-tryptophan [α-MLT]

- inhibition at 1000 µM (ATB0,+ [2]; even at 1 mM, Xenopus oocytes, amino acid mixture simulating the plasma): ≤ 40%
Molecule: C[C@@](N)(Cc1c[nH]c2ccccc12)C(=O)O [D-isomer, α-methyl-D-tryptophan]
